Test results as given in publication PMC9267968, “Continued Structural Exploration of Sulfocoumarin as Selective Inhibitor of Tumor-Associated Human Carbonic Anhydrases IX and XII” (Molecules, 2022).

What was measured:
hCA I = biological target: T1, hCA I (Homo sapiens, UniProt P00915); assay: stopped-flow CO2 hydrase assay, hCA I inhibition; type: biochemical; conditions: 6 h incubation of enzyme and inhibitor; mean from 3 different assays, errors 5-10%; read-out: KI (nM) CA I
T1 construct: made in house
Method: (§1) For this reason, we herein report a 6 h incubation time instead.
(§2) An Applied Photophysics stopped-flow instrument was used for assaying the CA catalyzed CO2 hydration activity. […] The uncatalyzed rates were determined in the same manner and subtracted from the total observed rates. Stock solutions of inhibitor (0.1 mM) were prepared in distilled–deionized water and dilutions up to 0.01 nM were done thereafter with the assay buffer. Inhibitor and enzyme solutions were preincubated together for 6h at room temperature prior to assay, in order to allow for the formation of the E-I complex. The inhibition constants were obtained by non-linear least-squares methods using PRISM 3 and the Cheng–Prusoff equation and represent the mean from at least three different determinations. […] All CA isoforms were recombinant ones obtained in-house.

hCA II = biological target: T2, hCA II (Homo sapiens, UniProt P00918); assay: stopped-flow CO2 hydrase assay, hCA II inhibition; type: biochemical; conditions: 6 h incubation of enzyme and inhibitor; mean from 3 different assays, errors 5-10%; read-out: KI (nM) CA II
T2 construct: made in house
Method: as §1, §2

hCA XII = biological target: T3, hCA XII (Homo sapiens, UniProt O43570); assay: biochemical
T3 construct: made in house
Method: as §1, §2

hCA IX = biological target: T4, hCA IX (Homo sapiens, UniProt Q16790); assay: stopped-flow CO2 hydrase assay, hCA IX inhibition; type: biochemical; conditions: 6 h incubation of enzyme and inhibitor; mean from 3 different assays, errors 5-10%; read-out: KI (nM) CA IX
T4 construct: made in house
Method: as §1, §2

T1 sequence (P00915 whole entry): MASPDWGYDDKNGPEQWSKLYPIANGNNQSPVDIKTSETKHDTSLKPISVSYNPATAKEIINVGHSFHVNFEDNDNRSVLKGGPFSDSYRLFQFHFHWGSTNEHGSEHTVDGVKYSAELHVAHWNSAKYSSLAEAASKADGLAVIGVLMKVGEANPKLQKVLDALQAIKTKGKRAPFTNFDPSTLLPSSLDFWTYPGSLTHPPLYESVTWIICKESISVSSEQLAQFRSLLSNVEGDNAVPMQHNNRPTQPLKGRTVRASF
T3 sequence (O43570 25-354): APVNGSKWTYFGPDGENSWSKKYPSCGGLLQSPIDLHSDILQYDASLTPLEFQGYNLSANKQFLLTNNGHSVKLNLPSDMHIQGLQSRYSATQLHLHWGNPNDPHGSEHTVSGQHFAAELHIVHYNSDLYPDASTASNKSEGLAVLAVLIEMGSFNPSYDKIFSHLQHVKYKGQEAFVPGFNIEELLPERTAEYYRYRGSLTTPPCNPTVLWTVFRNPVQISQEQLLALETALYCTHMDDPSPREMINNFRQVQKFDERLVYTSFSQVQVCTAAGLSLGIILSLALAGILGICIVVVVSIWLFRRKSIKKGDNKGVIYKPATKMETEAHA

SMILES | Ki (hCA I) [nM] | Ki (hCA II) [nM] | Ki (hCA XII) [µM] | melting point [°C] | Ki (hCA IX) [nM]
COc1ccc2c(c1)OS(=O)(=O)C(C(=O)Nc1ccccc1)=C2 [Compound 43, 7-methoxy-N-phenylbenzo[e][1,2]oxathiine-3-carboxamide 2,2-dioxide] | > 100000 | > 100000 | 1.59 | 241 to 244 | 2430
COc1ccc2c(c1)OS(=O)(=O)C(C(=O)Nc1cccc(Br)c1)=C2 [Compound 45, N-(3-bromophenyl)-7-methoxybenzo[e][1,2]oxathiine-3-carboxamide 2,2-dioxide] | > 100000 | > 100000 | 76.5 | 218 to 220 | 64400

Results, then the compound that gave them:

Ki (hCA I) [nM] | Ki (hCA II) [nM] | Ki (hCA XII) [µM] | melting point [°C] | Ki (hCA IX) [nM] | SMILES
> 100000 | > 100000 | 42.5 | 272 to 275 | 51500 | COc1ccc2c(c1)OS(=O)(=O)C(C(=O)Nc1ccc(Br)cc1)=C2 [Compound 44, N-(4-bromophenyl)-7methoxybenzo[e][1,2]oxathiine-3-carboxamide 2,2-dioxide]
> 100000 | > 100000 | 6.55 | 238 to 240 | 4370 | COc1ccc(NC(=O)C2=Cc3ccc(OC)cc3OS2(=O)=O)cc1 [Compound 46, N-(4-methoxyphenyl)-7-methoxybenzo[e][1,2]oxathiine-3-carboxamide 2,2-dioxide]
> 100000 | > 100000 | 2.47 | 222 to 225 | 6560 | COc1cccc(NC(=O)C2=Cc3ccc(OC)cc3OS2(=O)=O)c1 [Compound 47, N-(3-methoxyphenyl)-7-methoxybenzo[e][1,2]oxathiine-3-carboxamide 2,2-dioxide]
